The values below come from PubChem BioAssay (NCI).

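Grown in 96-well plates, cells were treated for 48 hours with each compound at five concentrations. Insufficient inhibition: endpoint recorded as highest concentration tested. GI50 marks 50% less growth. TGI: total growth inhibition.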 Bounds are passed on as bounds.

What all share (assay): inhibition of tumour cell growth, NCI panel, 48 h
The test system of test [1] is HCT-116 colon.
The subject of test [2] is LOX IMVI melanoma.
Test [3] has as its system OVCAR-3 ovarian.
The test system of test [4] is MOLT-4 leukemia.
For test [5], the system named is OVCAR-8 ovarian.
Test [6] deals with CCRF-CEM leukemia.
Test [7] relates to MCF7 breast.
Test [8] has as its system SK-OV-3 ovarian.
For test [9], the system named is HL-60(TB) leukemia.
The subject of test [10] is MDA-MB-435.

Turning to `CNC(=O)c1c(F)cccc1Nc1nc(Nc2cc3c(cc2OC)CCN3C(=O)CN(C)C)nc2[nH]ccc12`, the GI50 is 1.54 µM in test [1]; 2.4 µM in test [2]; 15 µM in [3]; 3.01 µM in test [4]; 2.79 µM in [5]; 2.1 µM in test [6]. Moreover, the GI50 in [7] was 0.359 µM; in test [8] it was 11.5 µM; in test [9], 0.364 µM; in [10] it was 1.4 µM. In addition, the TGI in test [1] is 3.33 µM; in test [2], 7.26 µM; in [3] it was 30.8 µM; in test [4] it was over 24.7 µM; in [5] it was 8.5 µM; in test [6], 5.73 µM. Further, the TGI in test [7] is 2.88 µM; in test [8], 27.5 µM; in test [9], 18.2 µM; in [10] it was 3.51 µM.

For the compound `CC(=O)Nc1ccc(S(=O)(=O)N=S(C)C)cc1`, the TGI in test [1], in test [2], in [3], in test [4], in [5] and in test [6] was over 100 µM each time. The TGI in [7], in test [8], in test [9] and in test [10] was over 100 µM each time.

Regarding `COc1cc2c3c(n(CCCNCCCNCCN)c(=O)c2cc1OC)-c1cc2c(cc1C3=O)OCO2`, the GI50 was 23 µM in test [1]; 13.1 µM in [2]; 19.5 µM in test [3]; 10.9 µM in test [4]; 35.4 µM in [5]; 10.1 µM in test [6]. For the same compound, the GI50 is 32.5 µM in test [7], over 100 µM in test [8], 46.9 µM in test [9] and 38 µM in test [10]. For the same compound, the TGI in test [1] was 57.9 µM; in test [2], 36.4 µM; in test [3] it was 53.5 µM; in test [4], over 100 µM; in test [5], over 100 µM; in [6] it was 32.2 µM. For the same compound, the TGI in [7], in test [8], in test [9] and in test [10] was over 100 µM throughout.

Take `COC1C=COC2(C)Oc3c(C)c(O)c4c(O)c(c(C5SCCS5)c(O)c4c3C2=O)NC(=O)/C(C)=C\C=CC(C)C(O)C(C)C(O)C(C)C(OC(C)=O)C1C` (centres undefined): the TGI was 48.7 µM in test [1]; 4.57 µM in [2]; 20.4 µM in test [3]; 4.43 µM in test [4]; 26 µM in [5]; 5.33 µM in test [6]. The TGI was 24.2 µM in [7], 27.7 µM in [8], 12.5 µM in test [9] and 16.1 µM in [10].

`COS(C)(=O)=O`: the TGI in [1], in test [2], in test [3], in test [4], in [5] and in [6] was over 2 µM each time. Further, the TGI in [7], in [8], in [9] and in test [10] was over 2 µM throughout.

With `CCCCOc1ccc(/C=N/Nc2cc(C)nc3ccc(Br)cc23)cc1`, the GI50 was 1.77 µM in test [1]; 1.77 µM in test [2]; 2.06 µM in test [3]; 1.91 µM in test [4]; 1.77 µM in test [5]; 1.88 µM in test [6]. In addition, the GI50 is 1.83 µM in test [7], 1.66 µM in test [8], 2.02 µM in test [9] and 1.8 µM in test [10]. Further, the TGI in [1] is 3.31 µM; in test [2], 3.24 µM; in test [3], 3.84 µM; in test [4] it was 4.11 µM; in test [5], 3.53 µM; in [6] it was 4.46 µM. Also, the TGI in [7] turned out to be 3.68 µM; in test [8], 3.05 µM; in test [9], 4.07 µM; in test [10] it was 3.27 µM.

Regarding `O=C(c1ccc([N+](=O)[O-])cc1)C(Br)C(Br)c1ccnc2ccccc12` (centres undefined), the TGI in test [1] worked out at 4.04 µM; in [2], 4.71 µM; in test [3], 23.1 µM; in [4], 14.7 µM; in test [5], 42.3 µM; in [6], 2.11 µM. For the same compound, the TGI came to 8.86 µM in test [7], 32.1 µM in test [8], 9.99 µM in test [9] and 7.85 µM in test [10].

Turning to `COc1ccc2c(O)c(/C=C3\N=Nc4ncccc43)oc2c1C[C@@H]1CCNC[C@H]1F`, the GI50 in [1] is 0.118 µM; in [2], 0.318 µM; in test [3] it was 0.485 µM; in [4], 0.181 µM; in test [5] it was 0.277 µM; in test [6], 0.141 µM. The GI50 in test [7] is 0.118 µM; in test [8], 2.33 µM; in test [9] it was 0.314 µM; in test [10], 1.21 µM. Also, the TGI in test [1] was 1.21 µM; in test [2] it was 0.972 µM; in test [3], 2.74 µM; in test [4], 0.544 µM; in test [5] it was 1.6 µM; in test [6], 0.993 µM. In addition, the TGI in [7] was determined as 1.09 µM; in [8], 7.71 µM; in test [9] it was 1.14 µM; in test [10], 2.79 µM.

For `C#C[C@@]1(O)[C@@H](CO)O[C@@H](n2cc(C(F)(F)F)c3c(N)ncnc32)[C@@H]1O`, the GI50 in [1] is 0.363 µM; in [2], 0.288 µM; in [3], 0.727 µM; in test [4], 0.29 µM; in test [5], 0.243 µM; in test [6], 0.487 µM. Moreover, the GI50 in test [7] was 0.0711 µM; in test [8], 0.214 µM; in [9], 0.278 µM; in [10] it was 0.808 µM. Moreover, the TGI in [1] is over 100 µM; in test [2], 2.98 µM; in test [3] it was 4.89 µM; in test [4] it was 1.33 µM; in test [5], over 100 µM; in [6] it was over 37.2 µM. The TGI in [8] was over 100 µM; in [9], 0.984 µM; in test [10] it was 11.3 µM.
